# Organism: Rattus norvegicus
# Experiment: DrugMatrix - Regimen: Daily Repeat
# Type: toxicity, organism-based, Sprague-Dawley
# Design: regimen Daily Repeat, gender Male, age 6-8 weeks
# Conditions: in vivo, po, 0 mg/kg, route oral GAVAGE, dose level Control, vehicle .5 % CMC; for ABSOLUTE BASOPHIL / ABSOLUTE EOSINOPHIL / ABSOLUTE MONOCYTE / ABSOLUTE SEGMENTED NEUTROPHIL / BASOPHIL / EOSINOPHIL / ERYTHROCYTE COUNT / HEMATOCRIT / HEMOGLOBIN / LEUKOCYTE COUNT / LYMPHOCYTE / MEAN CORPUSCULAR HEMOGLOBIN / MEAN CORPUSCULAR HEMOGLOBIN CONCENTRATION / MEAN CORPUSCULAR VOLUME / MONOCYTE / NEUTROPHIL / NUCLEATED RED BLOOD CELLS / PLATELET COUNT: tissue Blood; for ALANINE AMINOTRANSFERASE / ALBUMIN / ALKALINE PHOSPHATASE / ASPARTATE AMINOTRANSFERASE / BLOOD UREA NITROGEN / CARBON DIOXIDE / CHLORIDE / CHOLESTEROL / CREATINE PHOSPHOKINASE / CREATININE / GLUCOSE / LACTATE DEHYDROGENASE / LIPASE / PHOSPHORUS / POTASSIUM / SODIUM / TOTAL BILIRUBIN / TOTAL PROTEIN / URIC ACID: tissue Plasma
compound,measurement,setting,value
CN(C)CCOC(c1ccccc1)c1ccccc1.Cn1c(=O)c2[nH]c(Cl)nc2n(C)c1=O [DIMENHYDRINATE],ABSOLUTE BASOPHIL,"72 h, time 3 day",0 CELLS/uL
same,ABSOLUTE EOSINOPHIL,"72 h, time 3 day",32.5 CELLS/uL
same,ABSOLUTE MONOCYTE,"72 h, time 3 day",474 CELLS/uL
same,ABSOLUTE SEGMENTED NEUTROPHIL,"72 h, time 3 day",1932.67 CELLS/uL
same,BASOPHIL,"72 h, time 3 day",0%
same,EOSINOPHIL,"72 h, time 3 day",0.17%
same,ERYTHROCYTE COUNT,"72 h, time 3 day",5.45 x10E6/uL
same,HEMATOCRIT,"72 h, time 3 day",34.32%
same,HEMOGLOBIN,"72 h, time 3 day",13.82 G/DL
same,LEUKOCYTE COUNT,"72 h, time 3 day",15.93 x10E3/uL
same,LYMPHOCYTE,"72 h, time 3 day",84.83%
same,MEAN CORPUSCULAR HEMOGLOBIN,"72 h, time 3 day",25.38 pg
same,MEAN CORPUSCULAR HEMOGLOBIN CONCENTRATION,"72 h, time 3 day",40.27 G/DL
same,MEAN CORPUSCULAR VOLUME,"72 h, time 3 day",63.05 fL
same,MONOCYTE,"72 h, time 3 day",3%
same,NEUTROPHIL,"72 h, time 3 day",12%
same,NUCLEATED RED BLOOD CELLS,"72 h, time 3 day",0.67 /100WBC
same,PLATELET COUNT,"72 h, time 3 day",1188.5 x10E3/uL
same,ALANINE AMINOTRANSFERASE,"72 h, time 3 day",54.83 u/L
same,ALBUMIN,"72 h, time 3 day",4.22 G/DL
same,ALKALINE PHOSPHATASE,"72 h, time 3 day",427.67 u/L
same,ASPARTATE AMINOTRANSFERASE,"72 h, time 3 day",86.5 u/L
same,BLOOD UREA NITROGEN,"72 h, time 3 day",15.33 mg/dL
same,CARBON DIOXIDE,"72 h, time 3 day",24.83 mmol/L
same,CHLORIDE,"72 h, time 3 day",102.33 MEQ/L
same,CHOLESTEROL,"72 h, time 3 day",71.67 mg/dL
same,CREATINE PHOSPHOKINASE,"72 h, time 3 day",442.5 u/L
same,CREATININE,"72 h, time 3 day",0.19 mg/dL
same,GLUCOSE,"72 h, time 3 day",160.67 mg/dL
same,LACTATE DEHYDROGENASE,"72 h, time 3 day",236.5 u/L
same,LIPASE,"72 h, time 3 day",9 u/L
same,PHOSPHORUS,"72 h, time 3 day",11.97 mg/dL
same,POTASSIUM,"72 h, time 3 day",6.2 MEQ/L
same,SODIUM,"72 h, time 3 day",142.85 MEQ/L
same,TOTAL BILIRUBIN,"72 h, time 3 day",0.2 mg/dL
same,TOTAL PROTEIN,"72 h, time 3 day",5.8 G/DL
same,URIC ACID,"72 h, time 3 day",1.3 mg/dL
same,ABSOLUTE BASOPHIL,"120 h, time 5 day",0 CELLS/uL
same,ABSOLUTE EOSINOPHIL,"120 h, time 5 day",114.5 CELLS/uL
same,ABSOLUTE MONOCYTE,"120 h, time 5 day",173 CELLS/uL
same,ABSOLUTE SEGMENTED NEUTROPHIL,"120 h, time 5 day",1048.5 CELLS/uL
same,BASOPHIL,"120 h, time 5 day",0%
same,EOSINOPHIL,"120 h, time 5 day",0.67%
same,ERYTHROCYTE COUNT,"120 h, time 5 day",5.66 x10E6/uL
same,HEMATOCRIT,"120 h, time 5 day",35.52%
same,HEMOGLOBIN,"120 h, time 5 day",14.27 G/DL
same,LEUKOCYTE COUNT,"120 h, time 5 day",15.95 x10E3/uL
same,LYMPHOCYTE,"120 h, time 5 day",91.33%
same,MEAN CORPUSCULAR HEMOGLOBIN,"120 h, time 5 day",25.23 pg
same,MEAN CORPUSCULAR HEMOGLOBIN CONCENTRATION,"120 h, time 5 day",40.2 G/DL
same,MEAN CORPUSCULAR VOLUME,"120 h, time 5 day",62.7 fL
same,MONOCYTE,"120 h, time 5 day",1.17%
same,NEUTROPHIL,"120 h, time 5 day",6.83%
same,NUCLEATED RED BLOOD CELLS,"120 h, time 5 day",0.33 /100WBC
same,PLATELET COUNT,"120 h, time 5 day",1229 x10E3/uL
same,ALANINE AMINOTRANSFERASE,"120 h, time 5 day",58.67 u/L
same,ALBUMIN,"120 h, time 5 day",4.32 G/DL
same,ALKALINE PHOSPHATASE,"120 h, time 5 day",382.5 u/L
same,ASPARTATE AMINOTRANSFERASE,"120 h, time 5 day",81.67 u/L
same,BLOOD UREA NITROGEN,"120 h, time 5 day",17.67 mg/dL
same,CARBON DIOXIDE,"120 h, time 5 day",27.17 mmol/L
same,CHLORIDE,"120 h, time 5 day",102.33 MEQ/L
same,CHOLESTEROL,"120 h, time 5 day",63.67 mg/dL
same,CREATINE PHOSPHOKINASE,"120 h, time 5 day",227.67 u/L
same,CREATININE,"120 h, time 5 day",0.23 mg/dL
same,GLUCOSE,"120 h, time 5 day",155.33 mg/dL
same,LACTATE DEHYDROGENASE,"120 h, time 5 day",146.5 u/L
same,LIPASE,"120 h, time 5 day",10.67 u/L
same,PHOSPHORUS,"120 h, time 5 day",11.93 mg/dL
same,POTASSIUM,"120 h, time 5 day",6.85 MEQ/L
same,SODIUM,"120 h, time 5 day",143.95 MEQ/L
same,TOTAL BILIRUBIN,"120 h, time 5 day",0.18 mg/dL
same,TOTAL PROTEIN,"120 h, time 5 day",6.02 G/DL
same,URIC ACID,"120 h, time 5 day",1.63 mg/dL

# — ChEMBL document CHEMBL3885881, “DrugMatrix”
